Source: patent US11660258B2, “Alcohol containing non-antimicrobial cleansing composition” (GOJO Industries, Inc., priority 2017, dated 2023)

What was measured:
human skin [1] = experiment: Forearm controlled application test (FCAT), skin hydration by Corneometer
Protocol: (§1) Topical compositions were tested on skin samples for their ability to improve or maintain skin hydration and limit transepidermal water loss (TEWL). Measurement of the TEWL, expressed in grams per square meter and per hour, is used for studying the water barrier function of the human skin. The more perfect the skin protective coat, the higher the water content and the lower the TEWL. For each of the tests, a negative control was used, which included treatment with 8% SLS. An untreated skin sample was also tested for comparison. The tests were performed using the forearm controlled application test (FCAT) methodology. The various samples were applied to test sites on a forearm over the course of several days. On each day, up to six applications were made and the change in TEWL and hydration levels were recorded. The hydration levels were measured using a Corneometer® based on capacitance measurement of a dielectric medium. The Corneometer® measures the change in the dielectric constant due to skin surface hydration changing the capacitance of a precision capacitor. The measurement can detect even slight changes in the hydration level.
(§2) The compositions that were tested include the following, in weight %, based on the weight of the total composition: […]

human skin [2] = experiment: Forearm controlled application test (FCAT), transepidermal water loss (TEWL)
Protocol: as §1, §2

[3] = Example 2, wet and dry application, after 3 and 5 days of treatment

For CCCCCCCCCCCCOS(=O)(=O)[O-].[Na+] [negative control, sodium lauryl sulfate], the “hydration levels (change vs baseline)” value (human skin [1]; Example 1, FIG. 5, up to six applications per day over several days) was “lowest hydration levels”, the “change in hydration levels” value (human skin [1]; [3]) was “significant reduction in hydration level” and the “TEWL (change vs baseline)” value (human skin [2]; Example 1, FIG. 6, up to six applications per day over several days) was “highest TEWL”. The “change in TEWL” value (human skin [2]; [3]) was “significant TEWL”.
